Data published in patent US11065257B2, “Substituted pyrazoloazepin-4-ones and their use as phosphodiesterase inhibitors” (LEO Pharma A/S, priority 2016, dated 2021).

Biological target: T1, human PDE4D catalytic domain (Homo sapiens, UniProt Q08499)
T1 construct: UniProt no; Q08499 [S380-L740]
Assay: PDE4 Assay
Format: biochemical
Conditions: human PDE4D catalytic domain (S380-L740), TR-FRET with FAM-cAMP; expressed as a range of IC50; read-out: PDE4 Potency Range
Method: The human PDE4D catalytic domain (UniProt no. Q08499 [S380-L740]) was incubated with a mixture of non-labelled cAMP (cyclic adenosine monophosphate) and fluorescein amidite (FAM) conjugated cAMP and titrated test or reference compound. Following brief incubation the enzymatic reaction was stopped by addition of binding buffer containing nanoparticles with immobilized trivalent metal ions capable of binding 1) AMP phospho groups and 2) terbium (Tb) donor fluorophores. Subsequent excitation of the Tb donor triggers time-resolved FRET to adjacent FAM acceptor molecules resulting in light emission. In the presence of a PDE4 inhibitor, AMP generation was reduced resulting in a lower fluorescence signal. The cAMP phosphodiester is not bound by the detection system.
The results were calculated as the molar concentrations resulting in 50% inhibition of the substrate cleavage compared to controls samples, and are expressed as a range of IC50 (nM).

T1 sequence (Q08499 380-740): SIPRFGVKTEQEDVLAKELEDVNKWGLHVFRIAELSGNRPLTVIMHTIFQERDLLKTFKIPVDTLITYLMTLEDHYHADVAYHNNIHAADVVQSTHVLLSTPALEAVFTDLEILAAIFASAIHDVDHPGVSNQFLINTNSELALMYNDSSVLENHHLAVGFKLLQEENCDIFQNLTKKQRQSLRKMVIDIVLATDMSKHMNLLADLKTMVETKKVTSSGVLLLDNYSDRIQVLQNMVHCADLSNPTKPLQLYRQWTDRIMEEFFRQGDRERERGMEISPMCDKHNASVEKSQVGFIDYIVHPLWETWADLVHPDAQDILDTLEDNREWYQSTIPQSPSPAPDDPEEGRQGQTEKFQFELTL

CCc1nn(CCCOC(=O)c2cn(C)cn2)c2c1C(=O)NCC1(CCOCC1)C2 [Example 39, 3-(3-ethyl-4-oxo-spiro[6,8-dihydro-5H-pyrazolo[4,3-c]azepine-7,4′-tetrahydropyran]-1-yl)propyl 1-methylimidazole-4-carboxylate] and CCc1nn(CCCOC(=O)c2ccn(C)n2)c2c1C(=O)NCC1(CCOCC1)C2 [Example 32, 3-(3-ethyl-4-oxo-spiro[6,8-dihydro-5H-pyrazolo[4,3-c]azepine-7,4′-tetrahydropyran]-1-yl)propyl 1-methylpyrazole-3-carboxylate] cannot be ordered by IC50: over 500 nM for the first, over 500 nM for the second.

First: CCc1noc(C)c1C(=O)OCCCn1nc(CC)c2c1CC1(CCOCC1)CNC2=O [Example 92, 3-(3-ethyl-4-oxo-spiro[6,8-dihydro-5H-pyrazolo[4,3-c]azepine-7,4′-tetrahydropyran]-1-yl)propyl 3-ethyl-5-methyl-isoxazole-4-carboxylate]
Second: CCc1noc(CC)c1C(=O)OCCCn1nc(CC)c2c1CC1(CCOCC1)CNC2=O [Example 97, 3-(3-ethyl-4-oxo-spiro[6,8-dihydro-5H-pyrazolo[4,3-c]azepine-7,4′-tetrahydropyran]-1-yl)propyl 3,5-diethylisoxazole-4-carboxylate]
The IC50 of the first is higher: over 500 nM for the first, 100 to 500 nM for the second. The second is the more potent here.

CCc1nn(CCCOC(=O)c2cccc(C)n2)c2c1C(=O)NCC1(CCOCC1)C2 [Example 64, 3-(3-ethyl-4-oxo-spiro[6,8-dihydro-5H-pyrazolo[4,3-c]azepine-7,4′-tetrahydropyran]-1-yl)propyl 6-methylpyridine-2-carboxylate] and CCc1nn(CCCOC(=O)c2nccc(C)n2)c2c1C(=O)NCC1(CCOCC1)C2 [Example 69, 3-(3-ethyl-4-oxo-spiro[6,8-dihydro-5H-pyrazolo[4,3-c]azepine-7,4′-tetrahydropyran]-1-yl)propyl 4-methylpyrimidine-2-carboxylate] cannot be ordered by IC50: over 500 nM for the first, over 500 nM for the second.

First: CCc1nn(CCCOC(=O)c2ncccc2C)c2c1C(=O)NCC1(CCOCC1)C2 [Example 62, 3-(3-ethyl-4-oxo-spiro[6,8-dihydro-5H-pyrazolo[4,3-c]azepine-7,4′-tetrahydropyran]-1-yl)propyl 3-methylpyridine-2-carboxylate]
Second: CCc1nn(CCCOC(=O)c2ncsc2C)c2c1C(=O)NCC1(CCOCC1)C2 [Example 80, 3-(3-ethyl-4-oxo-spiro[6,8-dihydro-5H-pyrazolo[4,3-c]azepine-7,4′-tetrahydropyran]-1-yl)propyl 5-methylthiazole-4-carboxylate]
The IC50 of the first is higher: over 500 nM for the first, 100 to 500 nM for the second.

CCc1nn(CCCOC(=O)c2ccnnc2)c2c1C(=O)NCC1(CCOCC1)C2 [Example 30, 3-(3-ethyl-4-oxo-spiro[6,8-dihydro-5H-pyrazolo[4,3-c]azepine-7,4′-tetrahydropyran]-1-yl)propyl pyridazine-4-carboxylate] and CCc1nn(CCCOC(=O)c2cccnn2)c2c1C(=O)NCC1(CCOCC1)C2 [Example 29, 3-(3-ethyl-4-oxo-spiro[6,8-dihydro-5H-pyrazolo[4,3-c]azepine-7,4′-tetrahydropyran]-1-yl)propyl pyridazine-3-carboxylate] cannot be ordered by IC50: over 500 nM for the first, over 500 nM for the second.

CCc1nn(CCCOC(=O)c2ccnnc2C)c2c1C(=O)NCC1(CCOCC1)C2 [Example 67, 3-(3-ethyl-4-oxo-spiro[6,8-dihydro-5H-pyrazolo[4,3-c]azepine-7,4′-tetrahydropyran]-1-yl)propyl 3-methylpyridazine-4-carboxylate] and CCc1nn(CCCOC(=O)c2ncc(C)cn2)c2c1C(=O)NCC1(CCOCC1)C2 [Example 66, 3-(3-ethyl-4-oxo-spiro[6,8-dihydro-5H-pyrazolo[4,3-c]azepine-7,4′-tetrahydropyran]-1-yl)propyl 5-methylpyrimidine-2-carboxylate] cannot be ordered by IC50: over 500 nM for the first, over 500 nM for the second.

CCc1nn(CCCOC(=O)c2nc(C)c(C)s2)c2c1C(=O)NCC1(CCOCC1)C2 [Example 94, 3-(3-ethyl-4-oxo-spiro[6,8-dihydro-5H-pyrazolo[4,3-c]azepine-7,4′-tetrahydropyran]-1-yl)propyl 4,5-dimethylthiazole-2-carboxylate] and CCc1nn(CCCOC(=O)c2sc(C)nc2C)c2c1C(=O)NCC1(CCOCC1)C2 [Example 95, 3-(3-ethyl-4-oxo-spiro[6,8-dihydro-5H-pyrazolo[4,3-c]azepine-7,4′-tetrahydropyran]-1-yl)propyl 2,4-dimethylthiazole-5-carboxylate] fall in the same range of IC50: 100 to 500 nM for the first, 100 to 500 nM for the second.

CCc1nn(CCCOC(=O)c2cncs2)c2c1C(=O)NCC1(CCOCC1)C2 [Example 56, 3-(3-ethyl-4-oxo-spiro[6,8-dihydro-5H-pyrazolo[4,3-c]azepine-7,4′-tetrahydropyran]-1-yl)propyl thiazole-5-carboxylate] and CCc1nn(CCCOC(=O)c2cc(C)ns2)c2c1C(=O)NCC1(CCOCC1)C2 [Example 78, 3-(3-ethyl-4-oxo-spiro[6,8-dihydro-5H-pyrazolo[4,3-c]azepine-7,4′-tetrahydropyran]-1-yl)propyl 3-methylisothiazole-5-carboxylate] fall in the same range of IC50: 100 to 500 nM for the first, 100 to 500 nM for the second.

CCc1nn(CCCOC(=O)c2cc(C)nc(C)c2)c2c1C(=O)NCC1(CCOCC1)C2 [Example 86, 3-(3-ethyl-4-oxo-spiro[6,8-dihydro-5H-pyrazolo[4,3-c]azepine-7,4′-tetrahydropyran]-1-yl)propyl 2,6-dimethylpyridine-4-carboxylate] and CCc1nn(CCCOC(=O)c2cc(C)on2)c2c1C(=O)NCC1(CCOCC1)C2 [Example 44, 3-(3-ethyl-4-oxo-spiro[6,8-dihydro-5H-pyrazolo[4,3-c]azepine-7,4′-tetrahydropyran]-1-yl)propyl 5-methylisoxazole-3-carboxylate] fall in the same range of IC50: 100 to 500 nM for the first, 100 to 500 nM for the second.

First: CCc1nn(CCCOC(=O)C2CCSC2)c2c1C(=O)NCC1(CCOCC1)C2 (centres unmarked) [Example 60, 3-(3-ethyl-4-oxo-spiro[6,8-dihydro-5H-pyrazolo[4,3-c]azepine-7,4′-tetrahydropyran]-1-yl)propyl tetrahydrothiophene-3-carboxylate]
Second: CCc1nn(CCCOC(=O)C2CCCS(=O)(=O)C2)c2c1C(=O)NCC1(CCOCC1)C2 (centres unmarked) [Example 102, 3-(3-ethyl-4-oxo-spiro[6,8-dihydro-5H-pyrazolo[4,3-c]azepine-7,4′-tetrahydropyran]-1-yl)propyl 1,1-dioxothiane-3-carboxylate]
The IC50 of the first is lower: 100 to 500 nM for the first, over 500 nM for the second.

First: CCc1nn(CCCOC(=O)c2cnc(C)nc2)c2c1C(=O)NCC1(CCOCC1)C2 [Example 70, 3-(3-ethyl-4-oxo-spiro[6,8-dihydro-5H-pyrazolo[4,3-c]azepine-7,4′-tetrahydropyran]-1-yl)propyl 2-methylpyrimidine-5-carboxylate]
Second: CCc1nn(CCCOC(=O)c2cocn2)c2c1C(=O)NCC1(CCOCC1)C2 [Example 23, 3-(3-ethyl-4-oxo-spiro[6,8-dihydro-5H-pyrazolo[4,3-c]azepine-7,4′-tetrahydropyran]-1-yl)propyl oxazole-4-carboxylate]
The IC50 of the first is lower: 100 to 500 nM for the first, over 500 nM for the second. The first is the more potent here.

Work on CCc1nn(CCOC(=O)C2CCN(C(C)=O)CC2)c2c1C(=O)NCC1(CCOCC1)C2 [Example 16, 2-(3-ethyl-4-oxo-spiro[6,8-dihydro-5H-pyrazolo[4,3-c]azepine-7,4′-tetrahydropyran]-1-yl)ethyl 1-acetylpiperidine-4-carboxylate] yielded an IC50 of over 500 nM.
